Laboratory results reported in the NIST ThermoML archive (doi:10.1021/acs.jced.5b00770).
Numbers after ± are expanded uncertainties.

Details: Crystal; visual observation

Normal melting temperature: 276.50 ± 0.9 °C
SMILES: [Cl-].c1ccc([P+](c2ccccc2)(c2ccccc2)c2ccccc2)cc1 [tetraphenylphosphonium chloride]
